# Tests used:
# HUVECs [1] = experiment: VEGF-mediated transwell migration assay, HUVECs; type: cell-based, human; conditions: NMN 500 μM versus PBS
# [2] = test system: MLECs isolated from WT and ESKO mice; experiment: Transwell migration assay, MLECs; type: cell-based, mouse; conditions: WT versus ESKO MLECs, C2C12 CM, NMN 0.5 mM
# Notch signaling = experiment: Notch target genes and NICD in VEGF- or Dll4-stimulated HAECs; type: cell-based, human
# Method: Dll4 and VEGF stimulation of ECs. The ECs to be stimulated were serum-starved overnight and transferred to media containing VEGF (50 ng/mL) or to Dll4-coated plates, and then incubated for indicated time. Dll4 coating was performed as described before (Guarani et al., 2011, Nature 473, 234-238). Lyophilized recombinant Dll4 (R&D Systems) were reconstituted in PBS containing 0.1% bovine serum albumin. The culture dishes were coated with Dll4 (0.5 μg/mL) in 0.1 gelatin solution for 1 hr at 37° C.
# Total mRNA was isolated from cells and tissues using TRIzol (Life Technologies). cDNAs were synthesized from 1 μg of total RNA using M-MLV reverse transcriptase (Biorad). qPCR was performed with LightCycler […] SYBR Green I Mastermix (Roche) using the LightCycler 480 System (Roche) according to the manufacturer's instructions. Relative mRNA expression levels were calculated using the ΔΔCt method.
# SDS-PAGE and Western blot analysis were performed according to standard procedures and detected with the ECL detection kit (Bio-rad, Australia). […] Quantification of band intensities by densitometry was carried out using ImageJ software.
# SIRT1 = SIRT1 protein levels in HUVECs (Western blot); type: cell-based, human; conditions: NaHS 0.1 mM and/or NMN 0.5 mM
# Method: SDS-PAGE and Western blot analysis were performed according to standard procedures and detected with the ECL detection kit (Bio-rad, Australia). For Western blot analysis antibodies directed against SIRT1 (Sigma), SIRT3 (CST), SIRT6 (SantaCruz), eNOS (Cell Signaling Technology or CST), cleaved Notch1 (CST), total OXPHOS cocktail (Abcam), PGC-1α (Millipore), VEGF (Abcam), VEGFR2 (Abcam), phospho-VEGFR2 (Millipore), Actin (Cell Signaling Technology), Tubulin (Sigma), 14-3-3 (Cell Signaling Technology), GAPDH (SantaCruz) were used. Quantification of band intensities by densitometry was carried out using ImageJ software.
# HUVECs [3] = experiment: Seahorse analysis of oxygen consumption rate; type: cell-based, human; conditions: NaHS 100 μM, NMN 500 μM
# Method: Oxygen consumption rates were measured in accordance with manufacturer instructions using Seahorse XF96 analyzer (Seahorse Bioscience). Briefly, 40,000 HUVECs were plated onto XF96 plates and incubated overnight at 37° C./5% CO2. Next day, the media was replaced with XF assay media (DMEM), supplemented with glucose (1 g/L), glutamate (2 mM) and pyruvate (1 mM) and the pH was adjusted to 7.4. NaHS (100 μM) and/or NMN (500 μM) were added at the start of the experiment. Oxygen consumption measurements were made approximately every 8 minutes under basal conditions, and after the addition of oligomycin (1 μM). Experiments were replicated in six wells and averaged for each experimental condition.
# C57BL/6J mice = experiment: Muscle capillaries in mice with lentiviral EC-specific SIRT1 knockdown; type: in vivo, mouse; conditions: 20-month old mice, SIRT1 miRNA #5 lentivirus, NMN 400, NaHS 20, GYY4137 20 mg/kg/day, four weeks
# Method: Lentiviral particles were concentrated by ultracentrifugation (cite) and viral titer was determined by (cite kit) and injected at 1×10^10 TU/mouse carrying SIRT1 or NT miRNAs to 20-mo old WT C57BL/6J mice (NIA) via retro-orbital injection. Mice received two consecutive injections behind alternate eyes two days apart. 10 days post final injection, mice were assigned to different treatment groups.
# Freshly isolated whole quadriceps and gastrocnemius muscle samples were mounted in OCT compound (Tissue-Tek), placed in an isopentane bath and slowly cooled in liquid nitrogen. Transverse sections at 20 μm-thickness were sectioned on a cryostat (Leica). The sections were fixed in pre-cooled acetone (−20° C.) for 10 min and washed with PBS. Slides were then blocked in normal goat serum and 5% Blocking Reagent (PerkinElmer) in PBST (PBS with 0.1% Triton-X) for 1 h at room temperature, and then incubated with anti-CD31 (ab56299, Abcam) and anti-Laminin (L9393, Sigma), GFP (ab6556, Abcam) or SIRT1 (HPA006295, Sigma) antibodies diluted in blocking buffer overnight at 4° C. […] Images were acquired using a confocal fluorescence microscope (Nikon A1). Quantification of capillaries and capillary density were performed using ImageJ software. […]
smiles,measurement,setting,value
"NC(=O)c1ccc[n+]([C@@H]2O[C@H](COP(=O)([O-])O)[C@@H](O)[C@H]2O)c1 [NMN, nicotinamide mononucleotide]",motility in response to VEGF (migrated cells),HUVECs [1],promoted
same,"ability of NMN to stimulate cell migration, dependence on SIRT1",[2],SIRT1-dependent
same,NICD protein levels,"Notch signaling; VEGF- or Dll4-stimulated HAECs, NMN 0.5 mM",promoted NICD reduction
same,Notch target gene expression,"Notch signaling; after stimulation with VEGF (50 ng/mL) or Dll4, NMN 0.5 mM",significantly decreased
same,SIRT1 protein levels,SIRT1,increased SIRT1 protein levels
same,basal OCR,HUVECs [3],had no effect
same,ability to increase vascularization in SIRT1 knockdown mice,C57BL/6J mice,blocked in the SIRT1 knockdown mice

# — US12616713B2, “Methods for enhancing vascular density” (priority 2016, dated 2026)
